Experimental data reported in paper PMC3095715 (Chemical biology & drug design, 2011).

Target: human C3 (Homo sapiens, UniProt P01024)
Test: Surface plasmon resonance
Type: binding
Conditions: SPR

Chain of human C3 (P01024 23-1663): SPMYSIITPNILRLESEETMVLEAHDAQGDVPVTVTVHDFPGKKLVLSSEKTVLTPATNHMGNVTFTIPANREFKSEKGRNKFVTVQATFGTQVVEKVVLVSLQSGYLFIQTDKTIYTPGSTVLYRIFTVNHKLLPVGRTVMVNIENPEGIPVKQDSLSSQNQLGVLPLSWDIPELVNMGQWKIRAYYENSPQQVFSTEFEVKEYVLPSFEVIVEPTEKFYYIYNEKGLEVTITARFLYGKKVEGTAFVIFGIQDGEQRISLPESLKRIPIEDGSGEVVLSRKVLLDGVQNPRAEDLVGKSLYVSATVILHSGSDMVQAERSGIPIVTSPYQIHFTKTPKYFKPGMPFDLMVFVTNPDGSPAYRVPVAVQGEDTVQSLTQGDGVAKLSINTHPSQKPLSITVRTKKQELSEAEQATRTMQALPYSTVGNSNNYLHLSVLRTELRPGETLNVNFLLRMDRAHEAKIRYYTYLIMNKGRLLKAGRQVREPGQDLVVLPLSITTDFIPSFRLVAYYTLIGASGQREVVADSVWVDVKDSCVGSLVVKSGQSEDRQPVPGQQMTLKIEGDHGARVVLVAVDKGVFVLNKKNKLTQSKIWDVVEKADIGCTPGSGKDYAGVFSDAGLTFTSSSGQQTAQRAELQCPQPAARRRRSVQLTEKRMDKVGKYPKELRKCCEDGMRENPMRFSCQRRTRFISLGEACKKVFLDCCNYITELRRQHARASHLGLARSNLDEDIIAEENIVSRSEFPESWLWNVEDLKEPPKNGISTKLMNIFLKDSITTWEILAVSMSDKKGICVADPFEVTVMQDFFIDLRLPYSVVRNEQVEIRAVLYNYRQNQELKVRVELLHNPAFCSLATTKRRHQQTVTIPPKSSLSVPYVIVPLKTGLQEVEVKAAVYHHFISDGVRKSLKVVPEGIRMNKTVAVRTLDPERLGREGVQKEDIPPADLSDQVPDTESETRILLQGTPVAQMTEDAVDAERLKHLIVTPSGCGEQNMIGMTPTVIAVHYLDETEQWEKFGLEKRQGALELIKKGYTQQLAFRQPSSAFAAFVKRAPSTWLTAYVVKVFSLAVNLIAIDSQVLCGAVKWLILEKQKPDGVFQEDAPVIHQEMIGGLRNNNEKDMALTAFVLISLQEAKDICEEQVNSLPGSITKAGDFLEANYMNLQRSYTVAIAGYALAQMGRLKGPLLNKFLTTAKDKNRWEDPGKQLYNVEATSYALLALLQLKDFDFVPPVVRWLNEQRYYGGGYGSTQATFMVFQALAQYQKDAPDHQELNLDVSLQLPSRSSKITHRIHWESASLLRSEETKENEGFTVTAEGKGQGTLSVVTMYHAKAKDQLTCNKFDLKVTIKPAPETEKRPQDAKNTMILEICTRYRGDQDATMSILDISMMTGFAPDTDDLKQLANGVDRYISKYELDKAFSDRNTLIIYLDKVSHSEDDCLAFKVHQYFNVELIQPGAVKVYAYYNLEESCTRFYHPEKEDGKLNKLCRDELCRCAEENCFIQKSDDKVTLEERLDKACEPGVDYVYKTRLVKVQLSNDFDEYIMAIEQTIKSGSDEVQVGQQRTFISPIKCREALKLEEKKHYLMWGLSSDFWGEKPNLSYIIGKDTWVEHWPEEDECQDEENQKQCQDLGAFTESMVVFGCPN

## Ac-W[CVWQDWGAWRC]W-(PEG)8-K-(biotin)-NH2 (disulfide) [Peptide X]
  Binding to C3 (result in words): not to bind to C3
